Reference: patent US8664206B2, “Diastereomers of 2-methylene-19-nor-22-methyl-1α,25-dihydroxyvitamin D3” (Wisconsin Alumni Research Foundation, priority 2010, dated 2014)
Entries after “also recorded” stand apart in the source; their conditions may differ.

Tests used:
[1] = system: Sprague-Dawley rats; assay: Bone calcium mobilization (serum calcium); assay type: in vivo, rat
Description: (§1) Male, weanling Sprague-Dawley rats were placed on Diet 11 (0.47% Ca) diet+AEK oil for one week followed by Diet 11 (0.02% Ca)+AEK oil for 3 weeks. The rats were then switched to a diet containing 0.47% Ca for one week followed by two weeks on a diet containing 0.02% Ca. Dose administration began during the last week on 0.02% calcium diet. Four consecutive intraperitoneal doses were given approximately 24 hours apart. Twenty-four hours after the last dose, blood was collected from the severed neck and the concentration of serum calcium determined as a measure of bone calcium mobilization. The first 10 cm of the intestine was also collected for intestinal calcium transport analysis using the everted gut sac method.

[2] = target: T1, vitamin D receptor (full-length recombinant rat receptor) (Rattus norvegicus, UniProt P13053); assay: Vitamin D receptor competitive binding
T1 construct: Full-length recombinant rat receptor was expressed in E. coli; His tag (C); made in house; host or cells: E. coli BL21(DE3) Codon Plus RIL
T1 sequence (P13053 1-423): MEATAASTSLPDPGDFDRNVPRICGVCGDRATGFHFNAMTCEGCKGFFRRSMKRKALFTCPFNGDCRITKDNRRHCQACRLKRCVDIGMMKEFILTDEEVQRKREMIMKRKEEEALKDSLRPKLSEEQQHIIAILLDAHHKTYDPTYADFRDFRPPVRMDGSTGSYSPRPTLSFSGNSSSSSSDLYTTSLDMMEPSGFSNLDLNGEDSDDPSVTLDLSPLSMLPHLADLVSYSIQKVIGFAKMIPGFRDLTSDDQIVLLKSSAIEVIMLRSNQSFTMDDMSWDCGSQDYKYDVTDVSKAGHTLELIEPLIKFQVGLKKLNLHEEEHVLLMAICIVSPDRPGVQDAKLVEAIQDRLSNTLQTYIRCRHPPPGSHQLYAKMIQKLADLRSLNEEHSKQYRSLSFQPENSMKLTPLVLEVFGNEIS
Description: Full-length recombinant rat receptor was expressed in E. coli BL21(DE3) Codon Plus RIL cells and purified to homogeneity using two different column chromatography systems. The first system was a nickel affinity resin that utilizes the C-terminal histidine tag on this protein. The protein that was eluted from this resin was further purified using ion exchange chromatography (S-Sepharose Fast Flow). Aliquots of the purified protein were quick frozen in liquid nitrogen and stored at −80° C. until use. For use in binding assays, the protein was diluted in TEDK50 (50 mM Tris, 1.5 mM EDTA, pH 7.4, 5 mM DTT, 150 mM KCl) with 0.1% Chaps detergent. The receptor protein and ligand concentration was optimized such that no more than 20% of the added radiolabeled ligand was bound to the receptor.
Unlabeled ligands were dissolved in ethanol and the concentrations determined using UV spectrophotometry (1,25(OH)2D3: molar extinction coefficient=18,200 and λmax=265 nm; Analogs: molar extinction coefficient=42,000 and λmax=252 nm). Radiolabeled ligand (^3H-1,25(OH)2D3, ˜159 Ci/mmole) was added in ethanol at a final concentration of 1 nM.
Radiolabeled and unlabeled ligands were added to 100 mcl of the diluted protein at a final ethanol concentration of ≦10%, mixed and incubated overnight on ice to reach binding equilibrium. The following day, 100 mcl of hydroxylapatite slurry (50%) was added to each tube and mixed at 10-minute intervals for 30 minutes. The hydroxylapatite was collected by centrifugation and then washed three times with Tris-EDTA buffer (50 mM Tris, 1.5 mM EDTA, pH 7.4) containing 0.5% Titron X-100. After the final wash, the pellets were transferred to scintillation vials containing 4 ml of Biosafe II scintillation cocktail, mixed and placed in a scintillation counter. Total binding was determined from the tubes containing only radiolabeled ligand.

[3] = system: Sprague-Dawley rats; assay: Intestinal calcium transport (everted gut sac method); assay type: in vivo, rat
Description: as §1

[4] = system: 24-hydroxylase (24OHase) gene promoter; assay: In vitro transcription assay (24-hydroxylase promoter-luciferase in ROS 17/2.8 bone cells); assay type: cell-based, rat
Description: Transcription activity was measured in ROS 17/2.8 (bone) cells that were stably transfected with a 24-hydroxylase (24OHase) gene promoter upstream of a luciferase reporter gene (Arbour et al., 1998). Cells were given a range of doses. Sixteen hours after dosing the cells were harvested and luciferase activities were measured using a luminometer. RLU=relative luciferase units.

[5] = system: HL-60 cells; assay: HL-60 differentiation (nitro blue tetrazolium reduction); assay type: cell-based, human
Description: The study drugs were dissolved in ethanol and the concentrations determined using UV spectrophotometry. Serial dilutions were prepared so that a range of drug concentrations could be tested without changing the final concentration of ethanol (≦0.2%) present in the cell cultures.
Human promyelocytic leukemia (HL60) cells were grown in RPMI-1640 medium containing 10% fetal bovine serum. The cells were incubated at 37° C. in the presence of 5% CO2.
HL60 cells were plated at 1.2×10^5 cells/ml. Eighteen hours after plating, cells in duplicate were treated with drug. Four days later, the cells were harvested and a nitro blue tetrazolium reduction assay was performed (Collins et al., 1979; J. Exp. Med. 149:969-974). The percentage of differentiated cells was determined by counting a total of 200 cells and recording the number that contained intracellular black-blue formazan deposits. Verification of differentiation to monocytic cells was determined by measuring phagocytic activity (data not shown).

[6] = relative to the native hormone 1,25(OH)2D3 in the same assay, (value for native hormone)/(value for working example), >1 = more active

Structure (SMILES): C=C1[C@H](O)CC(=C/C=C2\CCC[C@@]3(C)C2CC[C@@H]3[C@H](C)[C@@H](C)CCC(C)(C)O)C[C@H]1O (stereo partly drawn) [SAG-1, (20R,22S)-2-methylene-19-nor-22-methyl-1α,25-dihydroxyvitamin D3]
- Net Bone Ca2+ Mobilization ([1]; at 260 pM dosage): 0.3^7 mg/dL
- bone calcium mobilization activity compared with 1,25(OH)2D3 (in words) ([1]; rat, intraperitoneal doses): less potent than 1,25-(OH)2D3; also recorded: no net calcemic activity on bone; also recorded: less potent than the native hormone; also recorded: little or no ability to mobilize bone calcium except at extremely high doses
- binding to the nuclear vitamin D receptor compared with 1,25(OH)2D3 (in words) ([2]; competitive binding against 3H-1,25(OH)2D3, recombinant rat receptor): bind the vitamin D receptor
- Ki ([2]; read-out: Competitive VDR Binding (Ki)): 0.09 nM
- Net Intestinal Ca2+ Transport (serosal Ca2+ to mucosal Ca2+ ratio, S/M) ([3]; at 260 pM dosage): 1.3^7
- intestinal calcium transport activity compared with 1,25(OH)2D3 (in words) ([3]; rat, intraperitoneal doses): comparable or reduced potency in comparison to 1,25(OH)2D3 at lower concentrations but increased potency in comparison to 1,25(OH)2D3 at high concentrations
- EC50 ([4]; Rattus norvegicus): 0.3 nM
- 24-hydroxylase transcription activity compared with 1,25(OH)2D3 (in words) ([4]; bone cells): approximately equal in potency to 1,25(OH)2D3
- 24OHase Transcription Relative Activity [4, 6]: 10
- cell differentiation activity (in words) [5]: relatively high cell differentiation activity
- EC50 ([5]; Homo sapiens, HL-60): 0.6 nM
- HL-60 Differentiation Relative Activity [5, 6]: 3.3
